Earlier results as cited in patent US7947297B2, “Mixtures of phenolic and inorganic materials with antimicrobial activity” (BASF SE, priority 2000, dated 2011).

Conditions: polypropylene samples, Xenon Arc Weather-Ometer at 035 W/m^2, 63° C.

**Q.** For `Oc1cc(Cl)ccc1Oc1ccc(Cl)cc1Cl` [Irgaguard ® B1000, 2,4,4′-trichloro-2′-hydroxydiphenyl ether], which discoloration upon weathering is on record?
**A.** discolor within hours
